{
  "source": "patent US20230149326A1",
  "about": "“PHARMACEUTICAL COMPOSITION FOR PREVENTING OR TREATING MUSCULAR WEAKNESS-RELATED DISEASES COMPRISING ALVERINE, 4-HYDROXY ALVERINE, DERIVATIVE THEREOF, OR PHARMACEUTICALLY ACCEPTABLE SALT THEREOF” (AVENTI INC., priority 2020, published 2023)",
  "format_in_all_cases": "in vivo",
  "key": {"C57BL/6 male mice [1]": {"test_system": "C57BL/6 male mice", "experiment": "Running ability test (treadmill), normal mouse", "details": "oral", "protocol": "In order to confirm the muscle strength enhancement effect of alverine citrate, after administering alverine citrate to a mouse, the mouse was tested for motor functions such as grip strength, running, balance coordination, and the like. After motor function tests, muscle weight was measured. In particular, each of 10 week-old C57BL/6 male mice was dosed orally with 200 μL of alverine citrate for 4 weeks, at a daily dose of 17 mg/kg/day (AC-L), 50 mg/kg/day (AC-M) or 150 mg/kg/day (AC-H). This group of mice was set as the experimental group (FIG. 3). The 10 week-old C57BL/6 male mice were purchased from Daehan BioLink. Running ability was measured using a treadmill designed specific for this experiment. First, aversive stimuli were provided by letting electric stimuli flow at the starting point. Before the measurement, the mice were acclimatized at 8 m/min for 10 minutes. The running time was recorded by allowing mice in each group to run in separate lanes until exhaustion. Exhaustion was defined such that when the mouse stays outside the lanes for 10 seconds or more without running, the mouse was determined to be exhausted and the time was recorded. It was not possible to repeat this experiment on the same mouse. The mouse was placed on the treadmill and the test was started at 8 rpm, and the speed was accelerated by 2 rpm every 10 minutes to a maximum speed of 20 rpm. […]"}, "C57BL/6 male mice [2]": {"test_system": "C57BL/6 male mice", "experiment": "Balance coordination test (rota-rod), normal mouse", "protocol": "In order to confirm the muscle strength enhancement effect of alverine citrate, after administering alverine citrate to a mouse, the mouse was tested for motor functions such as grip strength, running, balance coordination, and the like. After motor function tests, muscle weight was measured. In particular, each of 10 week-old C57BL/6 male mice was dosed orally with 200 μL of alverine citrate for 4 weeks, at a daily dose of 17 mg/kg/day (AC-L), 50 mg/kg/day (AC-M) or 150 mg/kg/day (AC-H). This group of mice was set as the experimental group (FIG. 3). The 10 week-old C57BL/6 male mice were purchased from Daehan BioLink. Balance coordination was measured using a rota-rod test. The rota-rod test device consists of 4 test zones, each having a shaft diameter of 3 cm and a lane width of 9 cm, and 5 rotatable circular dividers having a diameter of 60 cm and a round rod. The test was started from a rotating speed of 10 rpm, and the speed was accelerated up to maximum 40 rpm over 5 minutes, and the duration for which the mouse remains inside the rota-rod device, clinging to the round rod without falling, was recorded. The mouse was allowed to rest for 15 minutes after each test and was subjected to three tests in total. An average value of three measurements was calculated."}, "C57BL/6 male mice [3]": {"test_system": "C57BL/6 male mice", "experiment": "Grip strength measurement, normal mouse", "details": "oral, 4 weeks, 17, 50 or 150 mg/kg/day; compared with normal group", "protocol": "In order to confirm the muscle strength enhancement effect of alverine citrate, after administering alverine citrate to a mouse, the mouse was tested for motor functions such as grip strength, running, balance coordination, and the like. After motor function tests, muscle weight was measured. In particular, each of 10 week-old C57BL/6 male mice was dosed orally with 200 μL of alverine citrate for 4 weeks, at a daily dose of 17 mg/kg/day (AC-L), 50 mg/kg/day (AC-M) or 150 mg/kg/day (AC-H). This group of mice was set as the experimental group (FIG. 3). The 10 week-old C57BL/6 male mice were purchased from Daehan BioLink. Grip strength was measured using a grip strength meter for mice (Bioseb, USA). In particular, the mice were placed on a metal grid connected to an instrument panel through which grip strength can be monitored, and while pulling the mice back by tail, the grip strength by which the mice grabbed the metal grid was measured. Here, 5 consecutive, repeated measurements were recorded and an average value of the 5 measurements was calculated."}, "C57BL/6 male mice [4]": {"test_system": "C57BL/6 male mice", "experiment": "Muscle weight measurement, normal mouse", "protocol": "In order to confirm the muscle strength enhancement effect of alverine citrate, after administering alverine citrate to a mouse, the mouse was tested for motor functions such as grip strength, running, balance coordination, and the like. After motor function tests, muscle weight was measured. In particular, each of 10 week-old C57BL/6 male mice was dosed orally with 200 μL of alverine citrate for 4 weeks, at a daily dose of 17 mg/kg/day (AC-L), 50 mg/kg/day (AC-M) or 150 mg/kg/day (AC-H). This group of mice was set as the experimental group (FIG. 3). The 10 week-old C57BL/6 male mice were purchased from Daehan BioLink. For muscle weight measurement, gastrocnemius (GA) tibialis anterior (TA) muscles in the hindlimb of the mice in each group were removed and weighed."}, "sarcopenia-induced mice": {"test_system": "sarcopenia-induced mice", "experiment": "Muscle weight measurement, sarcopenia-induced mouse", "details": "hindlimb-immobilized mice; oral 17, 50, 150 mg/kg/day", "protocol": "In order to confirm a muscle strength enhancement effect of alverine citrate, sarcopenia-induced mice were administered with alverine citrate and tested for running ability. After the treadmill running test, muscle weight was measured. In particular, the hindlimb of 10 week-old C57BL/6 male mice was immobilized using a surgical stapler (Autosuture Royal 35W stapler). The staples were removed after 5 days and the mice were allowed to remobilize for 3 days. After that, running ability was measured. The mice were dosed orally with 200 μL of alverine citrate per mice at a dose of 17 mg/kg/day (AC-L), 50 mg/kg/day (AC-M) or 150 mg/kg/day (AC-H), and these mice were set as the experimental group. Untreated sarcopenia-induced mice were set as the control group (FIG. 8). The 10 week-old C57BL/6 male mice were purchased from Daehan BioLink. For muscle weight measurement, the GA and TA muscles in the hindlimb of the mice in each group were removed and weighed."}, "[5]": {"details": "oral, 4 weeks, 17, 50 or 150 mg/kg/day, compared with normal group"}},
  "note": "Structures can show the parent of a compound that is named as a salt.",
  "data": [
    {"compound": "CCN(CCCc1ccccc1)CCCc1ccccc1", "note": "[alverine citrate]", "values": [
      {"measurement": "running time", "setting": "C57BL/6 male mice [1]; 4 weeks, 150 mg/kg/day", "value": "significant increase in the running time"},
      {"measurement": "running time", "setting": "C57BL/6 male mice [1]; 4 weeks, 17, 50 or 150 mg/kg/day, compared with normal group", "value": "increased compared to the normal group mouse"},
      {"measurement": "duration clinging to the round rod, dependence on dose", "setting": "C57BL/6 male mice [2]; as the administration dose increased (17, 50, 150 mg/kg/day)", "value": "also increased proportionally"},
      {"measurement": "duration clinging onto the round rod", "setting": "C57BL/6 male mice [2]; [5]", "value": "increased compared to the normal group mouse"},
      {"measurement": "grip strength", "setting": "C57BL/6 male mice [3]", "value": "higher than that of the mouse in the normal group"},
      {"measurement": "muscle weight of GA and TA, dependence on dose", "setting": "C57BL/6 male mice [4]; as the administration dose increases (17, 50, 150 mg/kg/day)", "value": "also increased"},
      {"measurement": "muscle weight of GA and TA", "setting": "C57BL/6 male mice [4]; [5]", "value": "increased compared to the normal group mouse"},
      {"measurement": "GA and TA muscle weights, dependence on dose", "setting": "sarcopenia-induced mice", "value": "also increased"}
    ]}
  ]
}
